Among the data in ChEMBL document CHEMBL5291721, “A preclinical secondary pharmacology resource illuminates target-adverse drug reaction associations of marketed drugs” (Nat Commun, 2023) are AC50 values, retold here.

The target in experiment [1] is Sodium-dependent serotonin transporter (Homo sapiens, UniProt P31645).
In experiment [2] the target is T1, Alpha-1A adrenergic receptor (Homo sapiens, UniProt P35348).
T1 sequence (P35348 whole entry): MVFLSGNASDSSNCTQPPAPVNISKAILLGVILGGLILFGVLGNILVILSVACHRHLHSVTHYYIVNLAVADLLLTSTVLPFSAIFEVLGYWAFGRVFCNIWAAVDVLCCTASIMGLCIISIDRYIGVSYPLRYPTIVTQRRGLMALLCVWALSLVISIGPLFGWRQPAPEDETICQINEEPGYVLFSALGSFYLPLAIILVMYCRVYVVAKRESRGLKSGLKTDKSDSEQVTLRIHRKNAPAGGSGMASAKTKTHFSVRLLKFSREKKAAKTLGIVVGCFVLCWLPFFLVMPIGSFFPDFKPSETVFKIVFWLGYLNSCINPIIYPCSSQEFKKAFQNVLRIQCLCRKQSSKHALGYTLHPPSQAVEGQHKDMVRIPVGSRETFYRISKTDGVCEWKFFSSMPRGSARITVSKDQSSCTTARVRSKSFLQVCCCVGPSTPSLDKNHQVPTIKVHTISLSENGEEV
Format: functional, cell-based.

For experiment [3], the target named is 3',5'-cyclic-AMP phosphodiesterase 4A (Homo sapiens, UniProt P27815). Format: functional.
In experiment [4] the target is T2, Prostaglandin G/H synthase 1 (Homo sapiens, UniProt P23219). Format: functional.
Experiment [5] addresses Voltage-gated inwardly rectifying potassium channel KCNH2 (Homo sapiens, UniProt Q12809). Format: functional. Conditions: read-out: AC50.
In experiment [6] the target is T1, Alpha-1A adrenergic receptor. Format: functional, cell-based. This is another data set of the same source.
For experiment [7], the target named is T3, Muscarinic acetylcholine receptor M1 (Homo sapiens, UniProt P11229).
T3 sequence (P11229 whole entry): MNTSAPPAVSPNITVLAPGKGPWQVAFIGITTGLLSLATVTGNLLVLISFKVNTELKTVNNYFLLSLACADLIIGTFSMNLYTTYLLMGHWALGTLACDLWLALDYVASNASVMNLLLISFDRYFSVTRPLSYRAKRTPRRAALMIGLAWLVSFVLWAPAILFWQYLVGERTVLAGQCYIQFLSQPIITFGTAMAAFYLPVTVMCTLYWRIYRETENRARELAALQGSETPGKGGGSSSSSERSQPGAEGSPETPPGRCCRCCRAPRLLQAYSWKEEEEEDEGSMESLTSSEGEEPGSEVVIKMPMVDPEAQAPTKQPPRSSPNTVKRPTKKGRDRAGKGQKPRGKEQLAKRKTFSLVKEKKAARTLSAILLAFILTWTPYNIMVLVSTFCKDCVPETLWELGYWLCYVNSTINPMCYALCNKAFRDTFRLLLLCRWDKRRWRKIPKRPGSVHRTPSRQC
Format: functional, cell-based.

Experiment [8] deals with T4, Muscarinic acetylcholine receptor M2 (Homo sapiens, UniProt P08172).
T4 sequence (P08172 whole entry): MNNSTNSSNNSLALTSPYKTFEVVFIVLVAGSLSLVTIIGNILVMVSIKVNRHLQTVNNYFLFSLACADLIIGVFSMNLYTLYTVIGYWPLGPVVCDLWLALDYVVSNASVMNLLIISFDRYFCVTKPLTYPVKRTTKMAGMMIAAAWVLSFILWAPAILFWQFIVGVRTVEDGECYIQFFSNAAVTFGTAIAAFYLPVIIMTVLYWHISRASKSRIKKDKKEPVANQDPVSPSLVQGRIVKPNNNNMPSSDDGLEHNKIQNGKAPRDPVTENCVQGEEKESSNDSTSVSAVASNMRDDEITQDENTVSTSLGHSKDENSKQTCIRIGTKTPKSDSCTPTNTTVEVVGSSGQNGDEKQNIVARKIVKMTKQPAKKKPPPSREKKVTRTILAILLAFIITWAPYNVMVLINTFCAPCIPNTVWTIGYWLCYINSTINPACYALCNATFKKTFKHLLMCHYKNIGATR

Experiment [9] concerns the target Histamine H3 receptor (Homo sapiens, UniProt Q9Y5N1).
Experiment [10] has as its target Mu-type opioid receptor (Homo sapiens, UniProt P35372).
Experiment [11] deals with cGMP-inhibited 3',5'-cyclic phosphodiesterase 3A (Homo sapiens, UniProt Q14432). Format: functional.
Experiment [12] addresses T2, Prostaglandin G/H synthase 1. Format: functional. This is another data set of the same source.
Experiment [13] has as its target T5, Estrogen receptor (Homo sapiens, UniProt P03372).
T5 sequence (P03372 whole entry): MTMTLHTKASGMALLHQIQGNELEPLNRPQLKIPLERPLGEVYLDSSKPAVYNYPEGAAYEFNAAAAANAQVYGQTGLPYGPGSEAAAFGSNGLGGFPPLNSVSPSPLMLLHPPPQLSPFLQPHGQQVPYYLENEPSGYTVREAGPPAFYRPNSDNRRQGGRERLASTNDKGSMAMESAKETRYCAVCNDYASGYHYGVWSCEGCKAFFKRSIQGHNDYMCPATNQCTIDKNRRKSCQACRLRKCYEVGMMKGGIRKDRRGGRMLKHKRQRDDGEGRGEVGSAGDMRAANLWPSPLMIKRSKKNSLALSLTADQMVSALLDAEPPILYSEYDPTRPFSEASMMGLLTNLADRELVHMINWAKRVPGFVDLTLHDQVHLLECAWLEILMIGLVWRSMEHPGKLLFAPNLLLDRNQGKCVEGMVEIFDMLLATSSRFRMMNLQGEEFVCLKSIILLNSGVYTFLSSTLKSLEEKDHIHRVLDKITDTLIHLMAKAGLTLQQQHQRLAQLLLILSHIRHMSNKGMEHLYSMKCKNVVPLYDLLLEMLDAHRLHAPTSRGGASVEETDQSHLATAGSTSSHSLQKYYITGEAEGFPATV

Structures are written as SMILES.
Note: assay procedure not described here.

Mu-type opioid receptor, sequence (P35372 whole entry): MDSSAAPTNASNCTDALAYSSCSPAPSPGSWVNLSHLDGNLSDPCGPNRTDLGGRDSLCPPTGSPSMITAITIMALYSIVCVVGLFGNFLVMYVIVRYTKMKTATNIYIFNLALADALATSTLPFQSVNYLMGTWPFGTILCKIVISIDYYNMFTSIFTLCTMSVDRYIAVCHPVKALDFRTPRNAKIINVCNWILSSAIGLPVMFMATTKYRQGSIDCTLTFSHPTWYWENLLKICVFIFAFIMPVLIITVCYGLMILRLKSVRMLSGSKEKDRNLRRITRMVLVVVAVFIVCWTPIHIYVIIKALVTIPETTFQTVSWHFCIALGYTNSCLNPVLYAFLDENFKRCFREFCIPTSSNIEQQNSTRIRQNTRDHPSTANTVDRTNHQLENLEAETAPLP
Sodium-dependent serotonin transporter, sequence (P31645 whole entry): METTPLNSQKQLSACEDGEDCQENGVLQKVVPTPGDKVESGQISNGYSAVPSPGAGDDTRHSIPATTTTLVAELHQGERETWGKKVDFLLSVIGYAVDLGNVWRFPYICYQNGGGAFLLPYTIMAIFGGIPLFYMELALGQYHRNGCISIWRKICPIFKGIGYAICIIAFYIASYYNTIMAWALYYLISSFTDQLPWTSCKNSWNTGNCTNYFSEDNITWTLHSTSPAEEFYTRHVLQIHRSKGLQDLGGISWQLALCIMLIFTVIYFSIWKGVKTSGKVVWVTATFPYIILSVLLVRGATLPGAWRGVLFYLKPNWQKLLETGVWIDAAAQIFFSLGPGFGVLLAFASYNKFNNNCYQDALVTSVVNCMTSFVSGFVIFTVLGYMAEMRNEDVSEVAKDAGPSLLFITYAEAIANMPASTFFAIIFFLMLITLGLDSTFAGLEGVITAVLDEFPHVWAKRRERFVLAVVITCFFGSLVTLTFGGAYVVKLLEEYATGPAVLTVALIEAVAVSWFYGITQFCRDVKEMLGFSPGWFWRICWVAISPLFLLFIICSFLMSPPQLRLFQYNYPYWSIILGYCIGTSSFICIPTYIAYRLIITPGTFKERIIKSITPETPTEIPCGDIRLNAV
Voltage-gated inwardly rectifying potassium channel KCNH2, sequence (Q12809 whole entry): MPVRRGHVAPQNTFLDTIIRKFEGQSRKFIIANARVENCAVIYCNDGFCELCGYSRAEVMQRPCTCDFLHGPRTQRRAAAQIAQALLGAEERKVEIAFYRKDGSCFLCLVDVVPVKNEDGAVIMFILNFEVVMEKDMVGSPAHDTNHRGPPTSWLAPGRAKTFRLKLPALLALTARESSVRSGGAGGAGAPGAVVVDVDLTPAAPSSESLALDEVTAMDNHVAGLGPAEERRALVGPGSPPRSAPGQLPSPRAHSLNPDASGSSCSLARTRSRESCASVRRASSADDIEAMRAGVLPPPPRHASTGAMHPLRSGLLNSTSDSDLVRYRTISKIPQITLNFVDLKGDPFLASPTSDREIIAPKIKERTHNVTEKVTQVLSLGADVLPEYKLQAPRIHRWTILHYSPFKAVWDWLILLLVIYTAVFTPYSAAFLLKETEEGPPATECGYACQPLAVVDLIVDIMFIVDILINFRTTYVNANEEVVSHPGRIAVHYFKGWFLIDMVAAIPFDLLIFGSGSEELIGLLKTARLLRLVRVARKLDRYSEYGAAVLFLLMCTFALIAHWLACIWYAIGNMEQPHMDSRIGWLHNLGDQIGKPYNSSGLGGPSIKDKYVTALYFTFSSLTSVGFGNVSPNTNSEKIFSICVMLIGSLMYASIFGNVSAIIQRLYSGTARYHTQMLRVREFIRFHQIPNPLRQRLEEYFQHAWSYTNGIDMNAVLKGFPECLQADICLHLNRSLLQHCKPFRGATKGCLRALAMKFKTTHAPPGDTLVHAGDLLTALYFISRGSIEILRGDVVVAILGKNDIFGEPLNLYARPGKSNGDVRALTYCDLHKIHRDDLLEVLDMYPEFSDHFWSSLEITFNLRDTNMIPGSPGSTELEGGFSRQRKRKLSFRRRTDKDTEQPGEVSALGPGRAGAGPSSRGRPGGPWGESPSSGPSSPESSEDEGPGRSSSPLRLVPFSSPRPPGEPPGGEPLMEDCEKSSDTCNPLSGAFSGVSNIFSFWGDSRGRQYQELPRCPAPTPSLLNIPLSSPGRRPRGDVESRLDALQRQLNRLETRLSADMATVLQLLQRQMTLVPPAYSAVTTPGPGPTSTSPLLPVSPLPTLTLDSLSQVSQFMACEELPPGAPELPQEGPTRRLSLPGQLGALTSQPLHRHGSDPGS
cGMP-inhibited 3',5'-cyclic phosphodiesterase 3A, sequence (Q14432 whole entry): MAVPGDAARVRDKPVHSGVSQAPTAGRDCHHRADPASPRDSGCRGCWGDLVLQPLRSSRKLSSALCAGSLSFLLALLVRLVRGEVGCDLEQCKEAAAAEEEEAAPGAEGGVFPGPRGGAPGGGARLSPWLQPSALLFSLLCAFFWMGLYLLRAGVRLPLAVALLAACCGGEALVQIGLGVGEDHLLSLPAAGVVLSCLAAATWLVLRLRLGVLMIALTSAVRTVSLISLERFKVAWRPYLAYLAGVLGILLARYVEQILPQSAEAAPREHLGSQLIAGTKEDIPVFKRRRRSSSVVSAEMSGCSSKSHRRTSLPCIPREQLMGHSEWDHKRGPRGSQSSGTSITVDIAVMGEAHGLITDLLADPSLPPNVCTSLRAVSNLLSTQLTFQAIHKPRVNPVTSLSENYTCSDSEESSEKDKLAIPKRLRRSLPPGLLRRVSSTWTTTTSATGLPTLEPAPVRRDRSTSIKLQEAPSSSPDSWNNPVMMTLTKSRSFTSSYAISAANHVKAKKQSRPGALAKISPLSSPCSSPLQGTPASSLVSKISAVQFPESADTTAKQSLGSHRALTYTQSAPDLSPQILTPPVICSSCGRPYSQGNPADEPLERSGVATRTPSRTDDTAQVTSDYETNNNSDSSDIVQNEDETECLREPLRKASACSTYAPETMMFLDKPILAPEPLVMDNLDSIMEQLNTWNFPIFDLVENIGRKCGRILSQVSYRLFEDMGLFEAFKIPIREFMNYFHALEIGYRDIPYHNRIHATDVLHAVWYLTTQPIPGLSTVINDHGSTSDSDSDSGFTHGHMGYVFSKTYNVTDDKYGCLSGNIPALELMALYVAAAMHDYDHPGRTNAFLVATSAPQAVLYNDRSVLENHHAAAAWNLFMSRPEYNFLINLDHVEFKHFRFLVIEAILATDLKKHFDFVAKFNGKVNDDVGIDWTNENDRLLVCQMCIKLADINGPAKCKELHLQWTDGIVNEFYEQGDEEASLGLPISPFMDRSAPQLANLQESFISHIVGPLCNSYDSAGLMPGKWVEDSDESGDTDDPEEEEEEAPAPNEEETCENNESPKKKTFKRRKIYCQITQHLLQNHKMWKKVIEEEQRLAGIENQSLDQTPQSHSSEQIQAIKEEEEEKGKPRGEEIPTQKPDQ
Histamine H3 receptor, sequence (Q9Y5N1 whole entry): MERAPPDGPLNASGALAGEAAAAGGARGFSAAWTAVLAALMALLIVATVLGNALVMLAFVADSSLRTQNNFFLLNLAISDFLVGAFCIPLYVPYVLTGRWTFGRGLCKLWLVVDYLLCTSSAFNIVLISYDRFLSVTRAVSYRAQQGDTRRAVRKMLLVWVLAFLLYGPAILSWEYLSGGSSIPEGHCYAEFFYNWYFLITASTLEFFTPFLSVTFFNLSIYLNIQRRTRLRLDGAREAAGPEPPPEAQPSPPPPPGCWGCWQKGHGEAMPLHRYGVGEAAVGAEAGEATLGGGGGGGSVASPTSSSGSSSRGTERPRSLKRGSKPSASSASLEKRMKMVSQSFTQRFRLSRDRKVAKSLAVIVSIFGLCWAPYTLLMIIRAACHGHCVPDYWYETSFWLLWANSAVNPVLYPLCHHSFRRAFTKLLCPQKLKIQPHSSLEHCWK
3',5'-cyclic-AMP phosphodiesterase 4A, sequence (P27815 whole entry): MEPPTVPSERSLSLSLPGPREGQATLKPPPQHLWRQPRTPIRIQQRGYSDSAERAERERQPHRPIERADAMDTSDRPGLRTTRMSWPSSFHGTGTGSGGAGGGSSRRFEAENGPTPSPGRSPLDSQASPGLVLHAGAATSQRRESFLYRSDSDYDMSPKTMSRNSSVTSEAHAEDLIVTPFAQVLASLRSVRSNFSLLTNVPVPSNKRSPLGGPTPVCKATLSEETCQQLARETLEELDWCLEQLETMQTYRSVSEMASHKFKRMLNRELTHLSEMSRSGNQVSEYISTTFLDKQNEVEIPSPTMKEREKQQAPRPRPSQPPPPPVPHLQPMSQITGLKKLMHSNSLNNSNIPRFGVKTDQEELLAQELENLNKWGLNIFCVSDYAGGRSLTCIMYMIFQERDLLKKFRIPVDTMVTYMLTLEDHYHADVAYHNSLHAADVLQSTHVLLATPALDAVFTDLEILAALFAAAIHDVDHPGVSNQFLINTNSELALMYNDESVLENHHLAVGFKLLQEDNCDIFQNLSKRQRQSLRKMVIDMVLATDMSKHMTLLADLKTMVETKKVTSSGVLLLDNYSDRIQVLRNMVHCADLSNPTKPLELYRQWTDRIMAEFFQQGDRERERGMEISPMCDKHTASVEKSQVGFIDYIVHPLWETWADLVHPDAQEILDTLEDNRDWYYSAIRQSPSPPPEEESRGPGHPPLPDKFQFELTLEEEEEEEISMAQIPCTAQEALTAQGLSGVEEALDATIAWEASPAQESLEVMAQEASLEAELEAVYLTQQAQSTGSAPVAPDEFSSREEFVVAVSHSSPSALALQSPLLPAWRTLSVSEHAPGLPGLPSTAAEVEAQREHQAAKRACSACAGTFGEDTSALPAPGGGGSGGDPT

With `NNc1nnc(NN)c2ccccc12` [DIHYDRALAZINE], the AC50 in [1] was above 30 µM; in [2] it was above 30 µM; in [3], above 30 µM; in experiment [4], 0.434 µM; in [5], 0.44 µM; in experiment [6] it was above 30 µM. Besides, the AC50 in experiment [7] is above 30 µM; in [8] it was above 30 µM; in experiment [9] it was above 30 µM; in experiment [10] it was 25.6 µM; in [11] it was above 30 µM; in experiment [12], 0.344 µM. Further, in [13], the AC50 is above 30 µM.

Consider `CC(=O)c1ccc2c(c1)N(CCCN(C)C)c1ccccc1S2` [ACEPROMAZINE], for which the AC50 in [1] is 0.145 µM; in experiment [2], 0.003 µM; in [3], above 30 µM; in experiment [4] it was above 30 µM; in [5], 2.5 µM; in experiment [6], above 30 µM. Moreover, the AC50 in experiment [7] was 0.151 µM; in experiment [8], 0.204 µM; in experiment [9] it was above 30 µM; in [10] it was 2.42 µM; in experiment [11] it was above 30 µM; in experiment [12] it was above 30 µM. Also, in [13], the AC50 is above 30 µM.

As to `CC(CNC(=O)c1ccccc1)C(=O)OCC(=O)[C@@]12OC(C)(C)O[C@@H]1C[C@H]1[C@@H]3CCC4=CC(=O)C=C[C@]4(C)[C@@]3(F)[C@@H](O)C[C@@]12C` (stereo not given in full) [TRIAMCINOLONE BENETONIDE], the concentration at half-maximal activity (AC50) in experiment [1], in experiment [2], in experiment [3], in [4], in [5] and in experiment [6] was above 30 µM each time. Moreover, the AC50 in experiment [7], in [8], in experiment [9], in [10], in experiment [11] and in [12] was above 30 µM each time. The AC50 in experiment [13] is above 30 µM.

On to `N=C1CCCN1Cc1[nH]c(=O)[nH]c(=O)c1Cl`, for which the half-maximal activity concentration (AC50) in [1], in experiment [2], in experiment [3], in experiment [4], in experiment [5] and in [6] was above 30 µM each time. In addition, the AC50 in experiment [7], in experiment [8], in [9], in [10], in experiment [11] and in [12] was above 30 µM in each case. The same molecule yielded a concentration at half-maximal activity (AC50) in experiment [13] above 30 µM.

As to `OB1OCc2cc(F)ccc21` [TAVABOROLE], the AC50 in experiment [1], in experiment [2], in experiment [3], in experiment [4], in [5] and in [6] was above 30 µM in each case. Further, the AC50 in [7] is above 30 µM; in experiment [8] it was above 30 µM; in [9], above 30 µM; in experiment [10], above 30 µM; in experiment [11], 14.1 µM; in [12], above 30 µM. Besides, the AC50 in experiment [13] is above 30 µM.

Take `CC(=O)OCC1=C(C(=O)O)N2C(=O)[C@@H](NC(=O)[C@H](N)c3ccccc3)[C@H]2SC1` [CEPHALOGLYCIN]: the concentration at half-maximal activity (AC50) is above 30 µM in experiment [1]; above 30 µM in [2]; above 30 µM in experiment [3]; 26.5 µM in [4]; above 30 µM in [5]; above 30 µM in experiment [6]. For the same molecule, the AC50 in experiment [7] is above 30 µM; in experiment [8] it was above 30 µM; in [9] it was above 30 µM; in experiment [10], above 30 µM; in experiment [11] it was above 30 µM; in [12], 5.93 µM. For the same molecule, the AC50 in experiment [13] was above 30 µM.

In the case of `NC1CCN(c2c(F)cc3c(=O)c(C(=O)O)cn(C4CC4)c3c2Cl)C1` (stereo not given) [CLINAFLOXACIN], the AC50 in [1], in [2], in experiment [3], in [4], in experiment [5] and in [6] was above 30 µM throughout. The AC50 in experiment [7] was above 30 µM; in experiment [8], 5.08 µM; in [9], above 30 µM; in experiment [10] it was 4.91 µM; in experiment [11], above 30 µM; in [12], above 30 µM. In [13], the AC50 was above 30 µM.

As to `CC(C)(C)N1CCC(c2ccccc2)(c2ccccc2)CC1` [BUDIPINE], the AC50 in experiment [1] was above 30 µM; in experiment [2], above 30 µM; in experiment [3], above 30 µM; in experiment [4], above 30 µM; in experiment [5], 6.5 µM; in [6], above 30 µM. In addition, the AC50 in [7] was 0.57 µM; in experiment [8], 0.301 µM; in experiment [9], above 30 µM; in experiment [10] it was 12.6 µM; in [11] it was above 30 µM; in [12], above 30 µM. In experiment [13], this molecule displayed an AC50 above 30 µM.

Take `CCC(C)(C)c1ccc(CC(C)CN2C[C@@H](C)O[C@@H](C)C2)cc1` (stereo not given in full) [AMOROLFINE]: the AC50 is above 30 µM in experiment [1]; above 30 µM in experiment [2]; above 30 µM in experiment [3]; above 30 µM in experiment [4]; 11 µM in experiment [5]; above 30 µM in [6]. The half-maximal activity concentration (AC50) is 10.8 µM in experiment [7]; above 30 µM in experiment [8]; above 30 µM in [9]; above 30 µM in experiment [10]; above 30 µM in experiment [11]; above 30 µM in experiment [12]. The AC50 in experiment [13] was above 30 µM.

For `C[N+]1(CCCCC[N+]2(C)CCCC2)CCCC1` [PENTOLINIUM], the AC50 in experiment [1], in experiment [2], in experiment [3], in [4], in [5] and in experiment [6] was above 30 µM each time. Besides, the concentration at half-maximal activity (AC50) in experiment [7], in [8], in [9], in [10], in [11] and in [12] was above 30 µM throughout. This molecule also came in with an AC50 in [13] above 30 µM.
